Data as given in paper PMC8585049, “Z-DNA as a Tool for Nuclease-Free DNA Methyltransferase Assay” (International Journal of Molecular Sciences, 2021).
Entries after “also recorded” stand apart in the source; their conditions may differ. Read-outs that look alike come from different tables or passages of the source.

Columns and labels:
M.SssI = target: T1, M.SssI (Spiroplasma monobiae, UniProt P15840); experiment: smFRET B-Z transition-based DNA methylation (DMT inhibition) assay with M.SssI, UM core substrate; format: biochemical
T1 construct: purchased NEB (New England Biolabs, Inc., Ipswich, MA, USA)
T1 sequence (P15840 whole entry): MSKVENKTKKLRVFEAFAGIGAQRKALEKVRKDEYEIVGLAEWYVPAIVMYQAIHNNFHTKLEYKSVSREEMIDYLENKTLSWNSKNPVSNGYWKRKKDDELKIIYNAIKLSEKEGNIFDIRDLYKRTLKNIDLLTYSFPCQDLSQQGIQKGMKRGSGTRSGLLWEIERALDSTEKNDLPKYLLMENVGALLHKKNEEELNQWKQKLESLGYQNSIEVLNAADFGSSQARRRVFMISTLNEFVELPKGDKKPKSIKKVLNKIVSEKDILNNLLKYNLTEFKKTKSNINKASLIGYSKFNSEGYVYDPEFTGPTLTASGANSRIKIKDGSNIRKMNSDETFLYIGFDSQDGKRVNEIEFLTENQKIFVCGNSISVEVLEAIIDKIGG
Experimental: (§1) Here we define the degree of inhibition as: DOI=P(Z;DMT)−P(Z;DMT+drug)/P(Z;DMT)−P(Z;0) where P(Z;0) is the population of Z-DNA without any treatment (neither DMT nor inhibitor drug), P(Z;DMT) the Z-DNA population after incubation with DMT, and P(Z;DMT+drug) the Z-DNA population after incubation with DMT together with an inhibitor drug. […] On the opposite limit, the inhibition would be complete (DOI = 1) if P(Z;DMT+drug) completely reduces to the level of P(Z;0) . We employed the UM and HM molecules as substrates for M.SssI and DNMT1, respectively. We used 50 mM Mg^2+ and applied 80 U/mL M.SssI or 100 U/mL DNMT1. […] To check this possibility, we reduced SAM to 10 μM and repeated the inhibitor assay.
(§2) DMTs can change cytosine to methylcytosine by converting SAM to SAH (S-adenosyl homocysteine). In the inhibitor-free assay, we added reagents to water (or 0, 1.75, and 2.5% DMSO in water in control reactions for inhibitor assays) in the following order: SAM, 10× buffer, DNA, and M.SssI or DNMT1. In the DNMT1 assay, the reaction mixture of 20 μL contained 25 nM DNA duplex and 20~400 U/mL (in the inhibitor-free assays) or 100 U/mL (in the inhibitor assays) DNMT1 in the reaction buffer (160 μM SAM and 100 μg/mL BSA in 1× DNMT1 buffer (200 mM NaCl, 50 mM Tris-HCl, 1 mM EDTA, 1 mM DTT, 50% glycerol, pH 7.5)). In the M.SssI assay, the reaction mixture of 20 μL contained 25 nM DNA duplex and 10~200 U/mL (in the inhibitor-free assays) or 80 U/mL (in the inhibitor assays) M.SssI in the reaction buffer (160 μM SAM in 1× NEB buffer 2 (50 mM NaCl, 10 mM Tris-HCl, 10 mM MgCl2, 1 mM DTT, pH 7.9)). The effect of DMSO itself was tested because it was used in a solvent for DMT inhibitors. […] The mixture was incubated at 37 °C. After various lengths of incubation time (typically 2 h), the methylation reaction was stopped by heat inactivation of the enzymes at 65 °C for 20 min and the reaction mixtures were stored at −20 °C until the future experiments with the smFRET technique.
In the DMT inhibition assays, DMT inhibitors at various concentrations were added together with either M.SssI or DNMT1 when the enzyme was added to the reaction tube (Figure 4A). The reaction and analysis were performed identically except for the addition of inhibitors. […] In these assays, we varied the concentrations of the reagents (proteins or inhibitors) or incubation times. […]

[1] = target: T2, human DNA methyltransferase 1 (DNMT1) (Homo sapiens, UniProt P26358); experiment: smFRET B-Z transition-based DNA methylation (DMT inhibition) assay with DNMT1, HM core substrate; format: biochemical; conditions: 100 U/mL DNMT1, HM core, 160 μM SAM, 50 mM Mg2+, 2-h incubation; read-out: IC50 (degree of inhibition of DNMT1 methylation activity)
T2 construct: purchased NEB (New England Biolabs, Inc., Ipswich, MA, USA)
T2 sequence (P26358 whole entry): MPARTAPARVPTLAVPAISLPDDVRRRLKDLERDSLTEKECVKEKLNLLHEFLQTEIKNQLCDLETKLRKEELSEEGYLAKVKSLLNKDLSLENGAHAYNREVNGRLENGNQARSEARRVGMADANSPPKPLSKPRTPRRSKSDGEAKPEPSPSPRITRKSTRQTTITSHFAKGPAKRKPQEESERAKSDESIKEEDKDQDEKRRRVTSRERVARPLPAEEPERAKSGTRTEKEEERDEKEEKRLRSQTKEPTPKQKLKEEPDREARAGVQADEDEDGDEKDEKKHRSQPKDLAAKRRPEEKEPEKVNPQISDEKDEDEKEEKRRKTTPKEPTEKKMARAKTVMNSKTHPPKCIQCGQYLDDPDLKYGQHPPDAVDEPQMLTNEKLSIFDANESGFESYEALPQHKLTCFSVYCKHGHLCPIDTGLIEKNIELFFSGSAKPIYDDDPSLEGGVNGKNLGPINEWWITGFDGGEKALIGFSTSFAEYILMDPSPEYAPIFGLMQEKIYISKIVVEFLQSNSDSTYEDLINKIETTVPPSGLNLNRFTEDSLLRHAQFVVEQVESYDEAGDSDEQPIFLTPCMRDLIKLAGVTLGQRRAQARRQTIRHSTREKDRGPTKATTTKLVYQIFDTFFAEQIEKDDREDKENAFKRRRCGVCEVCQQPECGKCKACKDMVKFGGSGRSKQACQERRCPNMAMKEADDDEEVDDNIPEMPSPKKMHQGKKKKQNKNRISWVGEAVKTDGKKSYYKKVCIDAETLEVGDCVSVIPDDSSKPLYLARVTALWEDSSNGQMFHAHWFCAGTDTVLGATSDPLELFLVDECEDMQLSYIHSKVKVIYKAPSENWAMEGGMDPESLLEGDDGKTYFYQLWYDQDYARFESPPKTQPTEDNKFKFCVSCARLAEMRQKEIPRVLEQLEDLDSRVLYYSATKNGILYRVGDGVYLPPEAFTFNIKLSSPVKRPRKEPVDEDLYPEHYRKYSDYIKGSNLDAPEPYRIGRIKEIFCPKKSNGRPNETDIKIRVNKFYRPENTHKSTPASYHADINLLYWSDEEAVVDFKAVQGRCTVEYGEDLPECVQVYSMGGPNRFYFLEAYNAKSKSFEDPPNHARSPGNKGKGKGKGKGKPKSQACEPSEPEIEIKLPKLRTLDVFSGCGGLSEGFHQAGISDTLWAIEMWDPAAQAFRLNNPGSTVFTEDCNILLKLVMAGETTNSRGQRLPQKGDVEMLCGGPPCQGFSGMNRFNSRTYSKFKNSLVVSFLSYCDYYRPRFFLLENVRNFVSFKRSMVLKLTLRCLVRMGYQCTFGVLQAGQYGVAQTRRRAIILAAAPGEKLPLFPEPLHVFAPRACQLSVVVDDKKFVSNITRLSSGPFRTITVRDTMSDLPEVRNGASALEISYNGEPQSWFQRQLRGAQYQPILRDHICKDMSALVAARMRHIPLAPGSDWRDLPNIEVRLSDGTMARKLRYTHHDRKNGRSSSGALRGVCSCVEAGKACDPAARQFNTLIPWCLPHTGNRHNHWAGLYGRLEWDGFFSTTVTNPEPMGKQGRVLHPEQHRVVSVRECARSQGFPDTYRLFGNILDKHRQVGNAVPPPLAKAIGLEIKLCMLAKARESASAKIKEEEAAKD
Experimental: as §1
as §2, with “technique. […]” for “technique.”

SMILES	IC50 (M.SssI; IC50 (degree of inhibition of M.SssI methylation activity), 80 U/mL M.SssI, UM core, 160 μM SAM, 50 mM Mg2+, 2-h incubation)	IC50 [1]	Effect of [DMSO] on DNA methylation activity of M.SssI (M.SssI; [DMSO] up to 5 %, [M.SssI] = 80 U/ml, 50 mM Mg2+, Figure S1)	IC50 (M.SssI; 80 U/mL M.SssI, UM core, 160 μM SAM, 50 mM Mg2+, 2-h incubation, read-out: IC50 (degree of inhibition of M.SssI methylation activity))	IC50 (M.SssI; [SAM] = 10 μM, M.SssI, Figure S8, read-out: IC50 (degree of inhibition of M.SssI methylation activity) with low [SAM])
O=c1c(-c2ccc(O)cc2)coc2cc(O)cc(O)c12 [genistein]	~600 µM	~400 µM			
COc1cc(/C=C/C(=O)CC(=O)/C=C/c2ccc(O)c(OC)c2)ccc1O [curcumin]		~1.3 µM			
C[S+](C)[O-] [DMSO]			remains unchanged; also recorded: negligible effect		
O=C(O[C@@H]1Cc2c(O)cc(O)cc2O[C@@H]1c1cc(O)c(O)c(O)c1)c1cc(O)c(O)c(O)c1 [EGCG, epigallocatechin gallate]		~100 µM		~80 µM	< 5 µM
